Measurements from ChEMBL document CHEMBL3885861, “Open TG-GATES”.

Species: Rattus norvegicus
Test: Open TG-GATES - Regimen: Single
Format: toxicity, organism-based, Sprague-Dawley
Parameters: regimen Single, gender Male, age 6 weeks
Conditions: in vivo, po, route gavage; for APTT / Bas / Eos / Fbg / Hb / Ht / Lym / MCH / MCHC / MCV / Mono / Neu / PT / Plat / RBC / Ret / WBC: tissue Blood; for KIDNEY_L / KIDNEY_R / KIDNEY_TOTAL: tissue Kidney; for LIVER: tissue Liver; for ALP / ALT / AST / CRE / DBIL / GLC / IP / K / LDH / Na / PL / RALB / TBIL / TC / TP / gamma-GTP: tissue Plasma
[1] = 300 mg/kg, 3 h, dose level Middle
[2] = 300 mg/kg, 6 h, dose level Middle
[3] = 300 mg/kg, 9 h, dose level Middle
[4] = 300 mg/kg, 24 h, dose level Middle
[5] = 1000 mg/kg, 3 h, dose level High
[6] = 1000 mg/kg, 6 h, dose level High
[7] = 1000 mg/kg, 9 h, dose level High
[8] = 1000 mg/kg, 24 h, dose level High

Question: Which results are given for `Clc1ccccc1CN1CCc2sccc2C1` [TICLOPIDINE]?
Answer: TERMINAL_BW [1]: 211.8 g; APTT [1]: 19.5 s; Bas [1]: 0%; Eos [1]: 1%; Fbg [1]: 220.8 mg/dL; Hb [1]: 13.1 g/dL; Ht [1]: 37.1%; Lym [1]: 73.4%; MCH [1]: 21.8 pg; MCHC [1]: 35.3%; MCV [1]: 61.6 fL; Mono [1]: 2.8%; Neu [1]: 21.6%; PT [1]: 12.2 s; Plat [1]: 124.1 x10_4/uL; RBC [1]: 602.2 x10_4/ul; Ret [1]: 8.4%; WBC [1]: 73.9 x10_2/uL; KIDNEY_L [1]: 0.9 g; KIDNEY_R [1]: 1 g; KIDNEY_TOTAL [1]: 1.9 g; LIVER [1]: 9 g; ALP [1]: 999 IU/L; ALT [1]: 36.2 IU/L; AST [1]: 74 IU/L; CRE [1]: 0.4 mg/dL; DBIL [1]: 0.078 mg/dL; GLC [1]: 194.2 mg/dL; IP [1]: 10.5 mg/dL; K [1]: 3.7 meq/L; LDH [1]: 161.4 IU/L; Na [1]: 141 meq/L; PL [1]: 129.2 mg/dL; RALB [1]: 3.3 g/dL; TBIL [1]: 0.1 mg/dL; TC [1]: 72.6 mg/dL; TP [1]: 5.4 g/dL; gamma-GTP [1]: 0.8 IU/L; TERMINAL_BW [2]: 209.7 g; APTT [2]: 18.1 s; Bas [2]: 0.2%; Eos [2]: 0.8%; Fbg [2]: 226.8 mg/dL; Hb [2]: 13.5 g/dL; Ht [2]: 39.1%; Lym [2]: 77%; MCH [2]: 21.1 pg; MCHC [2]: 34.5%; MCV [2]: 61.3 fL; Mono [2]: 2.4%; Neu [2]: 18.4%; PT [2]: 12.1 s; Plat [2]: 131 x10_4/uL; RBC [2]: 637.6 x10_4/ul; Ret [2]: 7.8%; WBC [2]: 76.9 x10_2/uL; KIDNEY_L [2]: 1 g; KIDNEY_R [2]: 1 g; KIDNEY_TOTAL [2]: 1.9 g; LIVER [2]: 9.1 g; ALP [2]: 909.6 IU/L; ALT [2]: 34 IU/L; AST [2]: 74.6 IU/L; CRE [2]: 0.4 mg/dL; DBIL [2]: 0.078 mg/dL; GLC [2]: 192 mg/dL; IP [2]: 10 mg/dL; K [2]: 3.9 meq/L; LDH [2]: 213 IU/L; Na [2]: 141 meq/L; PL [2]: 134 mg/dL; RALB [2]: 3.4 g/dL; TBIL [2]: 0.1 mg/dL; TC [2]: 76.2 mg/dL; TP [2]: 5.5 g/dL; gamma-GTP [2]: 1.2 IU/L; TERMINAL_BW [3]: 208.6 g; APTT [3]: 18.8 s; Bas [3]: 0.2%; Eos [3]: 1%; Fbg [3]: 226.8 mg/dL; Hb [3]: 13.3 g/dL; Ht [3]: 37.6%; Lym [3]: 76%; MCH [3]: 21.4 pg; MCHC [3]: 35.3%; MCV [3]: 60.7 fL; Mono [3]: 2%; Neu [3]: 20.2%; PT [3]: 12.7 s; Plat [3]: 132.7 x10_4/uL; RBC [3]: 621.4 x10_4/ul; Ret [3]: 7.2%; WBC [3]: 64 x10_2/uL; KIDNEY_L [3]: 0.9 g; KIDNEY_R [3]: 1 g; KIDNEY_TOTAL [3]: 1.9 g; LIVER [3]: 8.3 g; ALP [3]: 859.4 IU/L; ALT [3]: 31.2 IU/L; AST [3]: 65.4 IU/L; CRE [3]: 0.4 mg/dL; DBIL [3]: 0.072 mg/dL; GLC [3]: 197 mg/dL; IP [3]: 9.8 mg/dL; K [3]: 3.9 meq/L; LDH [3]: 129.6 IU/L; Na [3]: 142 meq/L; PL [3]: 129 mg/dL; RALB [3]: 3.3 g/dL; TBIL [3]: 0.1 mg/dL; TC [3]: 69.8 mg/dL; TP [3]: 5.5 g/dL; gamma-GTP [3]: 1.2 IU/L; TERMINAL_BW [4]: 212.9 g; APTT [4]: 19.8 s; Bas [4]: 0.4%; Eos [4]: 1%; Fbg [4]: 228.2 mg/dL; Hb [4]: 14.1 g/dL; Ht [4]: 39.5%; Lym [4]: 80.8%; MCH [4]: 22.1 pg; MCHC [4]: 35.6%; MCV [4]: 62.2 fL; Mono [4]: 2.4%; Neu [4]: 14.6%; PT [4]: 12.1 s; Plat [4]: 128.1 x10_4/uL; RBC [4]: 635.4 x10_4/ul; Ret [4]: 6.1%; WBC [4]: 76.1 x10_2/uL; KIDNEY_L [4]: 1 g; KIDNEY_R [4]: 1 g; KIDNEY_TOTAL [4]: 2 g; LIVER [4]: 9.5 g; ALP [4]: 1118.8 IU/L; ALT [4]: 35.2 IU/L; AST [4]: 66.6 IU/L; CRE [4]: 0.4 mg/dL; DBIL [4]: 0.078 mg/dL; GLC [4]: 182.2 mg/dL; IP [4]: 8.7 mg/dL; K [4]: 4 meq/L; LDH [4]: 120 IU/L; Na [4]: 142 meq/L; PL [4]: 146.6 mg/dL; RALB [4]: 3.5 g/dL; TBIL [4]: 0.1 mg/dL; TC [4]: 83.4 mg/dL; TP [4]: 5.6 g/dL; gamma-GTP [4]: 1 IU/L; TERMINAL_BW [5]: 212.3 g; APTT [5]: 17.9 s; Bas [5]: 0.2%; Eos [5]: 1%; Fbg [5]: 220.2 mg/dL; Hb [5]: 13 g/dL; Ht [5]: 36.9%; Lym [5]: 73.2%; MCH [5]: 21.4 pg; MCHC [5]: 35.3%; MCV [5]: 60.7 fL; Mono [5]: 2.8%; Neu [5]: 22.4%; PT [5]: 11.8 s; Plat [5]: 128.4 x10_4/uL; RBC [5]: 609.4 x10_4/ul; Ret [5]: 8.6%; WBC [5]: 61.1 x10_2/uL; KIDNEY_L [5]: 0.9 g; KIDNEY_R [5]: 0.9 g; KIDNEY_TOTAL [5]: 1.9 g; LIVER [5]: 9 g; ALP [5]: 991.8 IU/L; ALT [5]: 36 IU/L; AST [5]: 71.4 IU/L; CRE [5]: 0.4 mg/dL; DBIL [5]: 0.076 mg/dL; GLC [5]: 196.4 mg/dL; IP [5]: 10.7 mg/dL; K [5]: 3.8 meq/L; LDH [5]: 147.4 IU/L; Na [5]: 140.4 meq/L; PL [5]: 122 mg/dL; RALB [5]: 3.3 g/dL; TBIL [5]: 0.1 mg/dL; TC [5]: 69.8 mg/dL; TP [5]: 5.5 g/dL; gamma-GTP [5]: 0.8 IU/L; TERMINAL_BW [6]: 211.9 g; APTT [6]: 19.4 s; Bas [6]: 0%; Eos [6]: 1%; Fbg [6]: 230.6 mg/dL; Hb [6]: 13.5 g/dL; Ht [6]: 38.4%; Lym [6]: 71.8%; MCH [6]: 21.6 pg; MCHC [6]: 35.1%; MCV [6]: 61.4 fL; Mono [6]: 2%; Neu [6]: 24.6%; PT [6]: 12.2 s; Plat [6]: 118.7 x10_4/uL; RBC [6]: 625.2 x10_4/ul; Ret [6]: 8.6%; WBC [6]: 69.6 x10_2/uL; KIDNEY_L [6]: 0.9 g; KIDNEY_R [6]: 0.9 g; KIDNEY_TOTAL [6]: 1.8 g; LIVER [6]: 8.7 g; ALP [6]: 863 IU/L; ALT [6]: 31 IU/L; AST [6]: 69 IU/L; CRE [6]: 0.4 mg/dL; DBIL [6]: 0.082 mg/dL; GLC [6]: 190.8 mg/dL; IP [6]: 9.5 mg/dL; K [6]: 3.8 meq/L; LDH [6]: 196.2 IU/L; Na [6]: 141.8 meq/L; PL [6]: 149.8 mg/dL; RALB [6]: 3.4 g/dL; TBIL [6]: 0.1 mg/dL; TC [6]: 91 mg/dL; TP [6]: 5.7 g/dL; gamma-GTP [6]: 1 IU/L; TERMINAL_BW [7]: 212.4 g; APTT [7]: 18.1 s; Bas [7]: 0.2%; Eos [7]: 0.6%; Fbg [7]: 228.8 mg/dL; Hb [7]: 13.6 g/dL; Ht [7]: 38.4%; Lym [7]: 79.6%; MCH [7]: 21.5 pg; MCHC [7]: 35.4%; MCV [7]: 60.9 fL; Mono [7]: 2.2%; Neu [7]: 16.4%; PT [7]: 12.4 s; Plat [7]: 132.4 x10_4/uL; RBC [7]: 629.8 x10_4/ul; Ret [7]: 7.3%; WBC [7]: 61.3 x10_2/uL; KIDNEY_L [7]: 1 g; KIDNEY_R [7]: 0.9 g; KIDNEY_TOTAL [7]: 1.9 g; LIVER [7]: 8.8 g; ALP [7]: 1127.2 IU/L; ALT [7]: 25.6 IU/L; AST [7]: 65.2 IU/L; CRE [7]: 0.4 mg/dL; DBIL [7]: 0.076 mg/dL; GLC [7]: 201.4 mg/dL; IP [7]: 10 mg/dL; K [7]: 3.8 meq/L; LDH [7]: 200.8 IU/L; Na [7]: 142.4 meq/L; PL [7]: 141.4 mg/dL; RALB [7]: 3.6 g/dL; TBIL [7]: 0.1 mg/dL; TC [7]: 74.8 mg/dL; TP [7]: 5.6 g/dL; gamma-GTP [7]: 1 IU/L; TERMINAL_BW [8]: 208.4 g; APTT [8]: 22.1 s; Bas [8]: 0.4%; Eos [8]: 1.2%; Fbg [8]: 209 mg/dL; Hb [8]: 13.9 g/dL; Ht [8]: 38.9%; Lym [8]: 80.8%; MCH [8]: 21.4 pg; MCHC [8]: 35.7%; MCV [8]: 59.9 fL; Mono [8]: 1.8%; Neu [8]: 15%; PT [8]: 13.1 s; Plat [8]: 129.7 x10_4/uL; RBC [8]: 650 x10_4/ul; Ret [8]: 5.9%; WBC [8]: 63.6 x10_2/uL; KIDNEY_L [8]: 1 g; KIDNEY_R [8]: 0.9 g; KIDNEY_TOTAL [8]: 1.9 g; LIVER [8]: 9.6 g; ALP [8]: 1071.8 IU/L; ALT [8]: 27.8 IU/L; AST [8]: 64.6 IU/L; CRE [8]: 0.5 mg/dL; DBIL [8]: 0.084 mg/dL; GLC [8]: 196.4 mg/dL; IP [8]: 8.8 mg/dL; K [8]: 3.8 meq/L; LDH [8]: 141 IU/L; Na [8]: 142 meq/L; PL [8]: 143 mg/dL; RALB [8]: 3.6 g/dL; TBIL [8]: 0.1 mg/dL; TC [8]: 86 mg/dL; TP [8]: 5.7 g/dL; gamma-GTP [8]: 1.2 IU/L
